In patent publication US20250222038A1, “COLLAGEN MATRIX OR MEMBRANE WITH ANTIMICROBIAL PROPERTIES” (BIOCELLIX SPA, priority 2017, published 2025):

Experiments:
[1] = test system: Gram-positive bacteria (genus Staphylococcus); test: Antibiotic sensitivity trial (inhibition halos on agar Müller-Hinton plate), Gram-positive isolate; type: cell-based; design: key to Plate 2 Sensitivity Level: Sensitive(S); Intermediate or Moderately sensitive (I); Resistant (R); conditions: Plate 2 = FIG. 2 right (Gram-positive bacteria); for Plate 2 (Gram+) (mm) inhibition halo: 18-24 hours at 37° C., average for three experiments; for Plate 2 Sensitivity Level: classified according to halo size
Experimental: (§1) In order to assert the antimicrobial capability of the collagen matrix or membrane, lab testing was carried out. Patient biopsies were collected from different types of infected wounds (neuropathic diabetic foot and biofilms). These samples were homogenized and set to culture for 24 hours to observe if there was bacterial growth or not. When bacterial growth is observed, colonies of these cultures were isolated, and with them, a test for microbial sensitivity to the action of nanometals was carried out. […] In order for this trial to be performed, antibiotics commonly used for eliminating these bacteria and at set concentrations were used as controls. […] In order to analyze the effectiveness of copper nanometals and its effectiveness as antimicrobial agents, three concentrations, 1, 5 and 10 mg/ml, were used. […] The trial was carried out as follows: On the surface of an agar Müller-Hinton plate, 100 μl of a bacterial solution (OD600: 0.4) were inoculated and seeded evenly for bacterial colonies to grow. Then, filter paper discs soaked with known concentrations of the different antibiotics are placed. The antibiotic will spread from the agar filter paper radially. The plate was incubated for 18-24 hours at 37° C., and then the growth inhibition halos are measured by interpreting them according to the available data in databases. The results are expressed as: Sensitive(S), Intermediate or Moderately sensitive (I) and Resistant (R). […] To determine the inhibition halo, the diameter surrounding the sense disc on which bacterial growth was not observed was measured on the plate seeded with bacteria in the presence of different antibiotics. In this case, the inhibition halo is expressed in mm. According to the halo size, the bacteria are classified as sensitive to the antibiotic action, resistant to the antibiotic action or of intermediate resistance to the antibiotic action (data that is published in databases). […] Additionally, the purpose of this trial is to rule out that the matrix alone presents some level of antimicrobial action, therefore, a copper-free matrix was used as control. […] Gram-negative bacteria belong to genus Proteus, and Gram-positive bacteria belong to genus Staphylococcus.

[2] = test system: Gram-negative bacteria (genus Proteus); test: Antibiotic sensitivity trial (inhibition halos on agar Müller-Hinton plate), Gram-negative isolate; type: cell-based; design: key to Plate 1 Sensitivity Level: Sensitive(S); Intermediate or Moderately sensitive (I); Resistant (R); conditions: Plate 1 = FIG. 2 left (Gram-negative bacteria); for Plate 1 (Gram-) (mm) inhibition halo: 18-24 hours at 37° C., average for three experiments; for Plate 1 Sensitivity Level: classified according to halo size
Experimental: as §1

| Compound | Plate 2 (Gram+) (mm) inhibition halo [1] [mm] | Plate 2 Sensitivity Level [1] | Plate 1 (Gram-) (mm) inhibition halo [2] [mm] | Plate 1 Sensitivity Level [2] |
| --- | --- | --- | --- | --- |
| CC1(C)S[C@@H]2[C@H](NC(=O)[C@H](N)c3ccccc3)C(=O)N2[C@H]1C(=O)O [AM, Ampicillin] | 12 | Intermediate | 0 | Resistant |
| O=C(O)c1cn(C2CC2)c2cc(N3CCNCC3)c(F)cc2c1=O [CIP, Ciprofloxacin] | 19 | – | 28 | – |
| CC[C@H]1OC(=O)[C@H](C)[C@@H](O[C@H]2C[C@@](C)(OC)[C@@H](O)[C@H](C)O2)[C@H](C)[C@@H](O[C@@H]2O[C@H](C)C[C@H](N(C)C)[C@H]2O)[C@](C)(OC)C[C@@H](C)C(=O)[C@H](C)[C@@H](O)[C@]1(C)O [CLR, Clarithromycin] | 18 | Sensitive | 15 | Intermediate |
